Measurements taken from patent US5187163A, “Anti-viral compounds, dosage forms and methods” (Baker Norton Pharmaceuticals, Inc., priority 1992, dated 1993).
Structures can show the parent of a compound that is named as a salt. Where two headings read alike, the source gives them in different places.

Tests used:
Format in all cases: cell-based
[1] = Cytotoxicity (cell viability, trypan blue exclusion) in uninfected MT-2 cells; conditions: human; day 14, uninfected MT-2 cells; mean of triplicate cultures from two sets of experiments; linear regression; read-out: ID50 (drug concentration required to reduce the number of uninfected MT2 cells by 50%)
Procedure: (§1) Target MT-2 cells (an HTLV-I immortalized CD4+lymphoblastoid cell line) were propagated in growth medium (D-MEM supplemented with 15% heat-inactivated fetal bovine serum, 2mM glutamine, and 1% penicillin-streptomycin).
(§2) MT-2 cells (2×10^5 cells per ml) were exposed to multiple drug concentrations (performed in triplicate). The medium was changed every 3-4 days, followed by the addition of fresh drug. Cell viability was determined by the trypan blue exclusion method and compared to controls without drug.
(§3) The comparative HIV inhibitory effects of nucleosides and the novel nucleoside dimers are shown on Table 1. The 50% inhibitory dose (ID50) and 50% effective dose (ED50) of each compound were calculated using linear regression analysis from the results of a 14 day assay that monitored cell viability and the expression of HIV antigen by cellular fluorescence.
(§4) The growth inhibitory effects of the compounds on MT-2 cells that were not exposed to the virus were compared. According to their ID50, the compounds could be classified into three major groups. […] When the cytotoxic effects of the compounds were tested against the human cell lines H9 and U937, similar toxicity profiles were seen.
(§5) from two sets of experiments. Linear regression analysis was used to
(§6) determine the ID50 and ED50. ID50, drug concentration
(§7) required to reduce the number of uninfected MT2 cells by 50% on day 14.

MT-2 cells = assay: as above; conditions: uninfected MT-2 cells, in words
Procedure: as §1, §2, §3, §4, §5, §6, §7

HIV (TM) [2] = assay: HIV infectivity assay in MT-2 cells (HIV antigen expression by immunofluorescence, 14 days); conditions: for CTI, cytotherapeutic index (ID50/ED50): ID50/ED50, day 14, MT-2 cells; for EC50: read-out: ED50 (drug concentration achieving 50% inhibition of HIV expression assessed by immunofluorescence); for anti-HIV activity profile according to ED50 / cytotherapeutic index, ranking: in words
Procedure: (§8) An isolate of HIV (TM) was obtained from the culture supernatant of normal peripheral blood mononuclear cells infected with virus isolated from a patient with AIDS. Supernatant from H9 cells infected with HIV (TM) was aliquoted at peak reverse transcriptase activity and kept frozen at -85° C. until use.
as §1
(§9) Target MT-2 cells were exposed to DEAE-dextran (25 ug/ml, Sigma) for 20 minutes, washed and infected with HIV (TM) (MOI=0.001) at 37° C. for 1 hour. MT-2 cells (3×10^5 per ml) were placed in growth medium and transferred to a 24-well plastic tray followed by the addition of drug. The cells were carried at 37° C. in humidified air containing 5% CO2 for 14 days. Every 3-4 days, the medium was changed and fresh drug added. At each change of medium, cells and supernatants were assayed for measures of HIV expression. Uninfected and infected MT-2 cells without exposure to drug were used as controls. All cultures were performed in triplicate on two sets of experiments.
*The results are expressed as the arithmetic mean of triplicate cultures
as §5
ED50, drug concentration achieving 50% inhibition of HIV expression
assessed by immunofluorescence on day 14.

HIV (TM) [3] = assay: 4 day HIV-induced syncytium inhibition assay in MT-2 cells; conditions: for EC100: Human immunodeficiency virus 1, MT2, 96 h, read-out: concentration for complete/full protection of MT-2 cells from the formation of syncytia; for protective effect against the development of HIV-induced syncytia: among the dimers, 4 day assay, in words
Procedure: as §8, with “use. HIV (TM) infectivity assays using sequential fivefold dilutions (performed in quadruplicate) determined the infectious virus titer (Reed-Muench method) to be 10^4.5 TC ID50 per ml.” for “use.”
as §1, §9
MT-2 cells were chosen because of their sensitivity to HIV infection with the formation of giant syncytia that are quantifiable. The cytopathic effect of HIV could be monitored as a function of the input virus inoculum. When MT-2 cells were monitored in a 14 day assay, a MOI of 0.001 gave rise to the formation of syncytia after 4 days (>400 per well) and peak reverse transcriptase levels by day 8.
To investigate the inhibitory effects of the drugs on HIV-induced syncytia formation, the nucleoside dimers were compared to their monomers and their combinations at multiple concentrations in a 4 day syncytium inhibition assay.

[4] = test system: Reverse transcriptase (RT); assay: Inhibition of reverse transcriptase activity in culture supernatant of HIV-infected H9 cells; conditions: for Reverse Transcriptase activity in culture supernatant: H9 cells, MOI = 1.0
Procedure: *Target cells = H9 cells. MOI = 1.0. Media changes with the addition of
fresh drug were performed at 3-4 day intervals. Results are expressed as
CPMReverse Transcriptase activity per ml in culture supernatant. CPM
>5,000 signifies abnormal elevations in Reverse Transcriptase activity.
The results represent the mean of duplicate studies in one experiment.

[5] = Human immunodeficiency virus 1, MT2, 336 h
[6] = 1 Ug/ml, day 7, control (no drug) 11,000
[7] = 1 Ug/ml, day 11, control (no drug) 38,000
[8] = 1 Ug/ml, day 14, control (no drug) 34,000
[9] = 5 Ug/ml, day 7, control (no drug) 11,000
[10] = 5 Ug/ml, day 11, control (no drug) 38,000
[11] = 5 Ug/ml, day 14, control (no drug) 34,000

Structure (SMILES) | CC50 at 336 h [1] | toxicity group according to ID50 (MT-2 cells) | CTI, cytotherapeutic index (ID50/ED50) (HIV (TM) [2]; 20160 min) | anti-HIV activity profile according to ED50 (HIV (TM) [2]) | EC50 (HIV (TM) [2]; [5]) | EC100 (HIV (TM) [3]) | protective effect against the development of HIV-induced syncytia (HIV (TM) [3]) | cytotherapeutic index, ranking (HIV (TM) [2]) | Reverse Transcriptase activity in culture supernatant [4, 6] | Reverse Transcriptase activity in culture supernatant [4, 7] | Reverse Transcriptase activity in culture supernatant [4, 8] | Reverse Transcriptase activity in culture supernatant [4, 9] | Reverse Transcriptase activity in culture supernatant [4, 10] | Reverse Transcriptase activity in culture supernatant [4, 11] | further results
O=c1[nH]cnc2c1ncn2[C@H]1CC[C@@H](CO)O1 [ddI, 2',3'-dideoxyinsine, reference compound] | 450 µM | least toxicity | 60 | weaker activities |  |  |  |  |  |  |  |  |  |  | EC50 (HIV (TM) [2]; day 14, HIV-infected MT-2 cells, MOI 0.001, mean of triplicate cultures from two sets of experiments, linear regression, 20160 min): 7.5 µM
Cc1cn(C2CC(N=[N+]=[N-])C(COP(=O)(O)OCC3OC(n4cc(C)c(=O)[nH]c4=O)CC3N=[N+]=[N-])O2)c(=O)[nH]c1=O (stereo not shown) [AZT-P-AZT, reference compound] | 60 µM | highest toxicity | 40 | most potent | 1.5 µM |  |  |  |  |  |  |  |  |  | 
Cc1cn([C@H]2C[C@H](N=[N+]=[N-])[C@@H](COP(=O)(O)OC[C@@H]3CC[C@H](n4cnc5c(N)ncnc54)O3)O2)c(=O)[nH]c1=O [AZT-P-ddA, azido-beta-thymidine-2',3'-dideoxyadenosine phosphate ammonium salt] | 200 µM | moderate toxicity | 250 | most potent | 0.8 µM | 0.5 µM | strongest protective effect | highest | 1,500 CPM per ml | 12,000 CPM per ml | 26,500 CPM per ml | 500 CPM per ml | 500 CPM per ml | 500 CPM per ml | activity in RT assay compared with AZT ([4]; in words): comparable to that of AZT
Cc1cn([C@H]2C[C@H](N=[N+]=[N-])[C@@H](COP(=O)(O)OC[C@@H]3CC[C@H](n4cnc5c(=O)[nH]cnc54)O3)O2)c(=O)[nH]c1=O [AZT-P-ddI, azido-β-thymidine-2',3'-dideoxyinosine phosphate ammonium salt] | 240 µM | moderate toxicity | 240 | most potent | 1 µM |  |  | highest | 1,000 CPM per ml | 3,000 CPM per ml | 10,000 CPM per ml | 1,000 CPM per ml | 1,500 CPM per ml | 25,000 CPM per ml | duration of inhibition of the enzyme (RT) ([4]; 1 ug/ml): at least 11 days
Nc1ncnc2c1ncn2[C@H]1CC[C@@H](CO)O1 [ddA, 2',3'-dideoxyadenosine, reference compound] | 400 µM | least toxicity | 57 | weaker activities | 7 µM | 10 µM |  |  |  |  |  |  |  |  | Reverse Transcriptase activity in culture supernatant ([4]; 1 uM, day 7, control (no drug) 11,000): 5,500 CPM per ml; Reverse Transcriptase activity in culture supernatant ([4]; 1 uM, day 11, control (no drug) 38,000): 45,000 CPM per ml; Reverse Transcriptase activity in culture supernatant ([4]; 1 uM, day 14, control (no drug) 34,000): 39,500 CPM per ml; Reverse Transcriptase activity in culture supernatant ([4]; 10 uM, day 7, control (no drug) 11,000): 500 CPM per ml; Reverse Transcriptase activity in culture supernatant ([4]; 10 uM, day 11, control (no drug) 38,000): 3,000 CPM per ml; Reverse Transcriptase activity in culture supernatant ([4]; 10 uM, day 14, control (no drug) 34,000): 4,500 CPM per ml
Cc1cn([C@H]2C[C@H](N=[N+]=[N-])[C@@H](COP(=O)(OCCC#N)OC[C@@H]3CC[C@H](n4cnc5c(N)ncnc54)O3)O2)c(=O)[nH]c1=O (stereo partly shown) [AZT-P(CyE)-ddA] | 210 µM | moderate toxicity | 300 | most potent | 0.7 µM | 0.5 µM | strongest protective effect | highest | 6,000 CPM per ml | 43,000 CPM per ml | 36,000 CPM per ml | 1,000 CPM per ml | 4,500 CPM per ml | 12,000 CPM per ml | 
